Measured values from patent US8481584B2, “1H-thieno[2,3-c]pyrazole derivatives useful as kinase inhibitors” (Nerviano Medical Sciences S.R.L., priority 2004, dated 2013).
Like-named read-outs stand apart in the source and are kept apart here.

Experiments:
[1] = system: human colon cancer cell line HCT-116; test: In vitro cell proliferation assay; assay type: cell-based; conditions: HCT-116, 72 hours of treatment, cell count, read-out: Cell Antiproliferation IC50
Protocol: The compounds of the invention were further tested, in vitro, to assess the anti-proliferative effect onto cell cultures.
In Vitro Cell Proliferation Assay
The human colon cancer cell line HCT-116 was seeded at 5000 cells/cm2 in 24 wells plate (Costar) using F12 medium (Gibco) supplemented with 10% FCS (EuroClone, Italy) 2 mM L-glutamine and 1% penicillin/streptomycin and maintained at 37° C., 5% CO2 and 96% relative humidity. The following day, plates were treated in duplicates with 5 ul of an appropriate dilution of compounds starting from a 10 mM stock in DMSO. Two untreated control wells were included in each plate. After 72 hours of treatment, medium was withdrawn and cells detached from each well using 0.5 mL of 0.05% (w/v) Trypsin, 0.02% (w/v) EDTA (Gibco). Samples were diluted with 9.5 mL of Isoton (Coulter) and counted using a Multisizer 3 cell counter (Beckman Coulter). Data were evaluated as percent of the control wells: % of CTR=(Treated−Blank)/(Control−Blank).
IC50 values were calculated by LSW/Data Analysis using Microsoft Excel sigmoidal curve fitting.

Aurora-2 = target: T1, Aurora-2 (Homo sapiens, UniProt O14965); test: Inhibition assay of Aurora-2 activity (SPA technology); assay type: biochemical
T1 sequence (O14965 1-403): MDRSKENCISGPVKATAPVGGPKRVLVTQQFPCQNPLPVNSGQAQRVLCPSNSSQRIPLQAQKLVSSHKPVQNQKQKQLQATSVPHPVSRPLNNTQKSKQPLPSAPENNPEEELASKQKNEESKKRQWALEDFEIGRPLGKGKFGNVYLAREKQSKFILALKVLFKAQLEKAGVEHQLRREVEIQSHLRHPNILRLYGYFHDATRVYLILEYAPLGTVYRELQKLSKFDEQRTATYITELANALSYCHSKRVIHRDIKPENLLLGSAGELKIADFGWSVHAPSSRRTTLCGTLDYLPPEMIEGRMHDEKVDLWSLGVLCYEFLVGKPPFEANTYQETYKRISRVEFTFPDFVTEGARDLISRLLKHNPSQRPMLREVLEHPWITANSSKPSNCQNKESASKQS

[2] = SPA assay, 10 μM ATP, 60 minutes at room temperature, read-out: Aurora-2 inhibition IC50
[3] = screened according to the methods of the pharmacology section, read-out: IC50 values for Aurora-2 inhibition

Structure (SMILES)	IC50 [1]	IC50 (Aurora-2; [2])	IC50 (Aurora-2; [3])
C[C@@H](NC(=O)c1cc2c(NC(=O)c3ccc(N4CCN(C)CC4)cc3)n[nH]c2s1)c1ccccc1 [Compound 36, 3-{[4-(4-methylpiperazin-1-yl)benzoyl]amino}-N-[(1R)-1-phenylethyl]-1H-thieno[2,3-c]pyrazole-5-carboxamide]	0.005 µM	–	–
C[C@@H](NC(=O)c1cc2c(NC(=O)c3ccc(N4CCOCC4)cc3)n[nH]c2s1)c1ccc(F)cc1 [Compound 3, N-[(1R)-1-(4-fluorophenyl)ethyl]-3-[(4-morpholin-4-ylbenzoyl)amino]-1H-thieno[2,3-c]pyrazole-5-carboxamide]	0.035 µM	0.006 µM	< 0.02 µM
CC(C)(NC(=O)c1cc2c(NC(=O)c3cccs3)n[nH]c2s1)c1ccccc1 [Compound 16, N-(1-methyl-1-phenylethyl)-3-[(thien-2-ylcarbonyl)amino]-1H-thieno[2,3-c]pyrazole-5-carboxamide]	0.056 µM	0.003 µM	< 0.02 µM
O=C(Nc1n[nH]c2sc(C(=O)NCc3ccccc3)cc12)c1ccc(N2CCOCC2)cc1 [Reference compound, N-benzyl-3-[(4-morpholin-4-ylbenzoyl)amino]-1H-thieno[2,3-c]pyrazole-5-carboxamide, reference compound]	0.184 µM	0.018 µM	–
O=C(Nc1n[nH]c2sc(C(=O)N[C@H](CN3CCCC3)c3ccccc3)cc12)c1ccc(N2CCOCC2)cc1 [Compound 5, 3-[(4-morpholin-4-ylbenzoyl)amino]-N-[(1S)-1-phenyl-2-pyrrolidin-1-ylethyl]-1H-thieno[2,3-c]pyrazole-5-carboxamide]	0.03 µM	0.009 µM	< 0.02 µM

Other lines, results leading:

IC50 [1]	IC50 (Aurora-2; [2])	IC50 (Aurora-2; [3])	Structure (SMILES)
0.006 µM	0.005 µM	< 0.02 µM	CC(C)(NC(=O)c1cc2c(NC(=O)c3ccc(N4CCOCC4)cc3)n[nH]c2s1)c1ccccc1 [Compound 1, N-(1-methyl-1-phenylethyl)-3-[(4-morpholin-4-ylbenzoyl)amino]-1H-thieno[2,3-c]pyrazole-5-carboxamide]
0.023 µM	0.003 µM	< 0.02 µM	O=C(Nc1n[nH]c2sc(C(=O)NC3(c4ccccc4)CC3)cc12)c1ccc(N2CCOCC2)cc1 [Compound 2, 3-[(4-morpholin-4-ylbenzoyl)amino]-N-(1-phenylcyclopropyl)-1H-thieno[2,3-c]pyrazole-5-carboxamide]
0.002 µM	0.001 µM	< 0.02 µM	CN1CCN(c2ccc(C(=O)Nc3n[nH]c4sc(C(=O)NC(C)(C)c5ccccc5)cc34)cc2)CC1 [Compound 29, N-(1-methyl-1-phenylethyl)-3-{[4-(4-methylpiperazin-1-yl)benzoyl]amino}-1H-thieno[2,3-c]pyrazole-5-carboxamide]
